Assays:
[1] = target: T1, His6 tagged human recombinant FABP4 (Homo sapiens, UniProt P15090); test: FABP4 TR-FRET assay: displacement of fluorescent fatty acid BODIPY FL C12; details: inhibition of BODIPY FL C12 binding to His6-FABP4; 1.2 μL of 1.085 mM compound in DMSO per well; triplicates, mean percent inhibition
T1 construct: purchased Cayman Chemicals 10009549
Procedure, shortened: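 TR-FRET displacement of BODIPY FL C12 from His6-FABP4 bound by Tb-anti-His6 antibody, in Tris pH 7.4 buffer with γ-globulins, NP-40 and DTT; compound stock 1.085 mM in DMSO. Read after 10 min at room temperature as 520/615 nm ratio; mean % inhibition versus DMSO from triplicates.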

[2] = test system: differentiated 3T3-L1 mouse adipocyte cells; test: Adipocyte glucose consumption in differentiated 3T3-L1 cells (colorimetric glucose assay of the medium); assay type: cell-based; details: 3T3-L1, 24 h, compound 10 μM, loss of glucose from culture medium, mean fold change (compound/DMSO)
Procedure, shortened: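 Differentiated 3T3-L1 mouse adipocytes (rosiglitazone/dexamethasone/IBMX/insulin induction, day 11) treated 24 h with compounds at 10 μM, 0.1% DMSO final. Medium glucose measured colorimetrically; consumption taken as glucose loss from medium versus cell-free control, expressed as mean fold change compound/DMSO ±SD.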

T1 sequence (P15090 whole entry): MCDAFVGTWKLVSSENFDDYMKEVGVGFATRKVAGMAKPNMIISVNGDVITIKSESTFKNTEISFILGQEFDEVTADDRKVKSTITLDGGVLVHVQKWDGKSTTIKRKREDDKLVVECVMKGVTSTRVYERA

SMILES | inhibition at 1085 µM (stock) [1] [%] | fold induction at 10 µM [2]
CCCCc1ccc2nc(N(C)CC(C)C(=O)O)cc(-c3cccnc3)c2c1 (stereo not drawn) [3-{[6-butyl-4-(pyridin-3-yl)quinolin-2-yl](methyl)amino}-2-methylpropanoic acid] | 46.4 | 1.13
CCc1ccc2nc(N(C)CC(=O)O)cc(-c3cccc(C#N)c3)c2c1 [2-{[4-(3-cyanophenyl)-6-ethylquinolin-2-yl](methyl)amino}acetic acid] | 50.8 | 1.16
CN(CC(=O)O)c1cc(-c2ccccc2)c2cc(CCc3ncccn3)ccc2n1 [2-[methyl({4-phenyl-6-[2-(pyrimidin-2-yl)ethyl]quinolin-2-yl})amino]acetic acid] | < 0 | 1.35
CCCCCCc1ccc2nc(N3CCCC3C(=O)O)cc(-c3ccccc3)c2c1 (stereo not drawn) [1-(6-hexyl-4-phenylquinolin-2-yl)pyrrolidine-2-carboxylic acid] | 67.5 | 1.09
CCCCc1ccc2nc(N(C)CC(=O)O)cc(-c3cccc(C)c3)c2c1 [2-{[6-butyl-4-(3-methylphenyl)quinolin-2-yl](methyl)amino}acetic acid] | 82.4 | 1.4
CCCCCCc1ccc2nc(-n3ccc(C(=O)O)c3)cc(-c3ccccc3)c2c1 [1-(6-hexyl-4-phenylquinolin-2-yl)-1H-pyrrole-3-carboxylic acid] | < 0 | 1.09
CCCCCCc1ccc2nc(N(C)CC(=O)O)c(C)c(N3CCOCC3)c2c1 [2-{[6-hexyl-3-methyl-4-(morpholin-4-yl)quinolin-2-yl](methyl)amino}acetic acid] | 93.8 | 1.17
CCCCCCc1ccc2nc(N(c3nnn[nH]3)C3CC3)cc(-c3ccccc3)c2c1 [N-cyclopropyl-6-hexyl-4-phenyl-N-(1H-1,2,3,4-tetrazol-5-yl)quinolin-2-amine] | 84 | 1.18
CC(Oc1cc(-c2ccccc2)c2cc(CCc3ccccc3)ccc2n1)C(=O)O (stereo not drawn) [2-{[4-phenyl-6-(2-phenylethyl)quinolin-2-yl]oxy}propanoic acid] | 34.1 | 1.21
CCCCCCc1ccc2nc(N(C)CC(=O)O)cc(Oc3cccnc3)c2c1 [2-{[6-hexyl-4-(pyridin-3-yloxy)quinolin-2-yl](methyl)amino}acetic acid] | 85 | 1.33
CCCCc1ccc2nc(OCC(=O)O)cc(-c3ccccc3)c2c1 [2-[(6-butyl-4-phenylquinolin-2-yl)oxy]acetic acid] | 11.3 | 1.12
CCCCc1ccc2nc(N(C)CC(=O)O)cc(-c3ccc(C#N)cc3)c2c1 [2-{[6-butyl-4-(4-cyanophenyl)quinolin-2-yl](methyl)amino}acetic acid] | 16.8 | 1.18
CCCCc1ccc2nc(N(C)CC(=O)O)cc(-c3ccccc3C)c2c1 [2-{[6-butyl-4-(2-methylphenyl)quinolin-2-yl](methyl)amino}acetic acid] | 99.7 | 1.27
CN(CC(=O)O)c1cc(-c2ccc(F)cc2)c2cc(-c3ccc(F)cc3)ccc2n1 [2-{[4,6-bis(4-fluorophenyl)quinolin-2-yl](methyl)amino}acetic acid] | 42 | 1.28
CN(CC(=O)O)c1cc(-c2ccccc2)c2cc(OCc3ccccc3)ccc2n1 [2-{[6-(benzyloxy)-4-phenylquinolin-2-yl](methyl)amino}acetic acid] | 84.2 | 1.27
CCCCCc1ccc2nc(N(C)CC(=O)O)cc(-c3ccc(F)cc3)c2c1 [2-{[4-(4-fluorophenyl)-6-pentylquinolin-2-yl](methyl)amino}acetic acid] | 80.9 | 1.34
CCCCc1ccc2nc(OCC(=O)O)cc(-c3cccc(C(N)=O)c3)c2c1 [2-{[6-butyl-4-(3-carbamoylphenyl)quinolin-2-yl]oxy}acetic acid] | 54.5 | 1.15
CC(C)(c1cc(-c2ccccc2)c2cc(CCc3ccccc3)ccc2n1)c1nnn[nH]1 [4-phenyl-6-(2-phenylethyl)-2-[2-(1H-1,2,3,4-tetrazol-5-yl)propan-2-yl]quinoline] | 75 | 1.2
CCCCCCc1ccc2nc(N(C)CC(=O)O)ccc2c1 [2-[(6-hexylquinolin-2-yl)(methyl)amino]acetic acid] | 53.3 | 1.15
CCCCCCc1ccc2nc(OC(C)C(=O)O)cc(-c3cccc(C#N)c3)c2c1 (stereo not drawn) [2-{[4-(3-cyanophenyl)-6-hexylquinolin-2-yl]oxy}propanoic acid] | 3.3 | 1.19

SMILES | inhibition at 1085 µM (stock) [1] [%] | fold induction at 10 µM [2]
CCCCCCc1ccc2nc(N3CCCC(C(=O)O)C3)cc(-c3ccccc3)c2c1 (stereo not drawn) [1-(6-hexyl-4-phenylquinolin-2-yl)piperidine-3-carboxylic acid] | 88.3 | 1.16
CCc1ccc2nc(OCC(=O)O)cc(-c3cccc(C(N)=O)c3)c2c1 [2-{[4-(3-carbamoylphenyl)-6-ethylquinolin-2-yl]oxy}acetic acid] | 30.4 | 0.93
CCCCc1ccc2nc(N(C)CC(C)C(=O)O)cc(-c3ccc(F)cc3)c2c1 (stereo not drawn) [3-{[6-butyl-4-(4-fluorophenyl)quinolin-2-yl](methyl)amino}-2-methylpropanoic acid] | 74 | 1.34
CCCCCc1ccc2nc(OCC(=O)O)cc(-c3cccc(C#N)c3)c2c1 [2-{[4-(3-cyanophenyl)-6-pentylquinolin-2-yl]oxy}acetic acid] | 10.6 | 1.01
Cc1cccc(CCc2ccc3nc(N(C)CC(=O)O)cc(-c4ccccc4)c3c2)c1 [2-[methyl({6-[2-(3-methylphenyl)ethyl]-4-phenylquinolin-2-yl})amino]acetic acid] | 50.2 | 1.53
CCCc1ccc2nc(N(C)CC(=O)O)cc(-c3cccc(C#N)c3)c2c1 [2-([4-(3-cyanophenyl)-6-propylquinolin-2-yl](methyl)amino}acetic acid] | 27.7 | 1.31
CCCCCCc1ccc2nc(N(C)CC(=O)O)cc(Oc3ccncc3)c2c1 [2-{[6-hexyl-4-(pyridin-4-yloxy)quinolin-2-yl](methyl)amino}acetic acid] | 10.7 | 1.02
N#Cc1cccc(-c2cc(OCC(=O)O)nc3ccc(Br)cc23)c1 [2-{[6-bromo-4-(3-cyanophenyl)quinolin-2-yl]oxy}acetic acid] | 19.9 | 0.99
CCCCCCCCc1ccc2nc(N(C)CC(=O)O)cc(-c3ccc(F)cc3)c2c1 [2-{[4-(4-fluorophenyl)-6-octylquinolin-2-yl](methyl)amino}acetic acid] | 53.8 | 1.28
CCCCc1ccc2nc(N(C)CC(=O)O)cc(-c3cccnc3)c2c1 [2-{[6-butyl-4-(pyridin-3-yl)quinolin-2-yl](methyl)amino}acetic acid] | 39.2 | 1.19
CCCCCc1ccc2nc(OCC(=O)O)cc(-c3cccc(C(N)=O)c3)c2c1 [2-{[4-(3-carbamoylphenyl)-6-pentylquinolin-2-yl]oxy}acetic acid] | 74.2 | 1.02
CN(CC(=O)O)c1cc(-c2ccccc2)c2cc(CCc3ccccc3Cl)ccc2n1 [2-({6-[2-(2-chlorophenyl)ethyl]-4-phenylquinolin-2-yl}(methyl)amino)acetic acid] | 30.1 | 1.26
CCCCc1ccc2nc(N(C)CC(C)C(=O)O)cc(-c3ccccc3)c2c1 (stereo not drawn) [3-[(6-butyl-4-phenylquinolin-2-yl)(methyl)amino]-2-methylpropanoic acid] | 74.7 | 1.34
CCCCCCCCc1ccc2nc(N(CC)CC(=O)O)cc(-c3ccc(F)cc3)c2c1 [2-{ethyl[4-(4-fluorophenyl)-6-octylquinolin-2-yl]amino}acetic acid] | 65.8 | 1.25
CCCc1ccc2nc(OCC(=O)O)cc(-c3cccc(C#N)c3)c2c1 [2-([4-(3-cyanophenyl)-6-propylquinolin-2-yl]oxy}acetic acid] | 34.8 | 1.06
CCCCCCc1ccc2nc(N(C)CC(C)C(=O)O)cc(-c3cccnc3)c2c1 (stereo not drawn) [3-{[6-hexyl-4-(pyridin-3-yl)quinolin-2-yl](methyl)amino}-2-methylpropanoic acid] | 54.7 | 1.16
CCCCc1ccc2nc(N(C)CC(=O)O)cc(-c3ccc(F)cc3)c2c1 [2-{[6-butyl-4-(4-fluorophenyl)quinolin-2-yl](methyl)amino}acetic acid] | 58.6 | 1.49
CCCCc1ccc2nc(N(C)CC(=O)O)cc(-c3cccc(C(N)=O)c3)c2c1 [2-{[6-butyl-4-(3-carbamoylphenyl)quinolin-2-yl](methyl)amino}acetic acid] | 26.1 | 1.13
CN(CC(=O)O)c1cc(-c2ccccc2)c2ccc(Br)cc2n1 [2-[(7-bromo-4-phenylquinolin-2-yl)(methyl)amino]acetic acid] | 84.5 | 1.19

— US20230183179A1, “NOVEL CELL METABOLISM MODULATING COMPOUNDS AND USES THEREOF” (CRESCENTA BIOSCIENCES, priority 2020, published 2023)
